Source: ChEMBL document CHEMBL1140592, “Identification of novel, selective and potent Chk2 inhibitors” (Bioorg Med Chem Lett, 2007)

These molecules were tested against Serine/threonine-protein kinase Chk2 (Homo sapiens, UniProt O96017) (assay: Inhibition of Chk2 kinase).
Sequence of Serine/threonine-protein kinase Chk2 (O96017 whole entry): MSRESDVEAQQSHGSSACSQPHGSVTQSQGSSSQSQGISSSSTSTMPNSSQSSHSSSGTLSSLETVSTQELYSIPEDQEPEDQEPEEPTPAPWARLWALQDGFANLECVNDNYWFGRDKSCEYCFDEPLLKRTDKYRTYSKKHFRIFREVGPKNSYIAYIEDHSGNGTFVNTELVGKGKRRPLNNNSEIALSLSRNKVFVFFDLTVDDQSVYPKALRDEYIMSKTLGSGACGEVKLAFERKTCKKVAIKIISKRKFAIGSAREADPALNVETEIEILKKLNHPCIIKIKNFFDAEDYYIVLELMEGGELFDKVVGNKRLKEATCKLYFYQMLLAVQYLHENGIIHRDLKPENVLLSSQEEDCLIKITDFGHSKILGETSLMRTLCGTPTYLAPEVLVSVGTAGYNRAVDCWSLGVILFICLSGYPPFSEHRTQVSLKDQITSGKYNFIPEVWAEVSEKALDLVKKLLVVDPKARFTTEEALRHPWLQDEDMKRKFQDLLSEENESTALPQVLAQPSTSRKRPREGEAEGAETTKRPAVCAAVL

Row | IC50 [nM] | Compound
1 | 11000 | N=C(NCC1CCCCC1)c1c(O)nsc1Nc1ccc(/N=N/c2ccccc2)cc1
2 | 1000 | N=C(NCCO)c1c(O)nsc1Nc1ccc(Nc2ccccc2)cc1
3 | 2300 | CC(C)NC(=N)c1c(O)nsc1Nc1ccc(Oc2ccccc2)cc1
4 | 11000 | CC(C)NC(=N)c1c(O)nsc1Nc1ccc(/N=N/c2ccccc2)cc1
5 | 19000 | N=C(NCC1CCCCC1)c1c(O)nsc1Nc1ccc(Sc2ccccc2)cc1
6 | 1800 | N=C(NCC1CCCCC1)c1c(O)nsc1Nc1ccc(Nc2ccccc2)cc1
7 | 19000 | CC(C)NC(=N)c1c(O)nsc1Nc1ccc(C2CCCCC2)cc1
8 | 5000 | N=C(NCC1CCCCC1)c1c(O)nsc1Nc1ccc(C(=O)c2ccccc2)cc1
9 | 300 | N=C(NCC1CCCCC1)c1c(O)nsc1Nc1ccc(Nc2ccc(Br)cc2)cc1
10 | 420 | CC(C)NC(=N)c1c(O)nsc1Nc1ccc(Nc2ccccc2)cc1
11 | 37000 | N=C(NCC1CCCCC1)c1c(O)nsc1Nc1ccc(Cc2ccccc2)cc1
12 | 900 | N=C(NCC(O)CO)c1c(O)nsc1Nc1ccc(Nc2ccccc2)cc1 (stereo not given)
13 | 8000 | CC(C)NC(=N)c1c(O)nsc1Nc1ccc(Cc2ccccc2)cc1

Further lines, the molecule ahead of its results:

Row | Compound | IC50 [nM]
14 | CCC[C@H]1CC[C@H](c2ccc(Nc3s[nH]c(=O)c3C(N)=NCC(O)CO)cc2)CC1 (stereo not given in full) | 17000
15 | CC(CO)NC(=N)c1c(O)nsc1Nc1ccc(-n2cccn2)cc1 (stereo not given) | > 40000
16 | CC(C)NC(=N)c1c(O)nsc1Nc1ccc(S(=O)(=O)c2ccccc2)cc1 | > 40000
17 | NC(=NCC1CCCCC1)c1c(Nc2ccc(-n3cccn3)cc2)s[nH]c1=O | 40000
18 | N=C(NCc1cccc2ccccc12)c1c(O)nsc1Nc1ccc(Nc2ccc(Br)cc2)cc1 | 460
19 | N=C(NCC(O)CO)c1c(O)nsc1Nc1ccc(Nc2ccc(Br)cc2)cc1 (stereo not given) | 470
20 | CC(C)NC(=N)c1c(O)nsc1Nc1ccc(Nc2ccc(Br)cc2)cc1 | 87
21 | CC(CO)NC(=N)c1c(O)nsc1Nc1ccc(Nc2ccccc2)cc1 (stereo not given) | 460
22 | CC(CO)NC(=N)c1c(O)nsc1Nc1ccc(Nc2ccc(Br)cc2)cc1 (stereo not given) | 140
23 | N=C(NCCCCO)c1c(O)nsc1Nc1ccc(Nc2ccccc2)cc1 | 1200
24 | N=C(NCCCCO)c1c(O)nsc1Nc1ccc(Nc2ccc(Br)cc2)cc1 | 310
25 | N=C(NCCO)c1c(O)nsc1Nc1ccc(Nc2ccc(Br)cc2)cc1 | 220
